Results reported in ChEMBL document CHEMBL1201862, “PubChem BioAssay data set” (2004).
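Test compounds were applied to cells in 96-well plates for 48 hours at 5 doses. Abbreviation: GI50, concentration required for 50% inhibition of growth.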 Active and inactive are the calls of the source. No stated cut-off is given here; in the data, active = GI50 up to about 1.1 µM and inactive = higher.

Experiments:
Assay in all cases: growth of human tumour cells (NCI), 48 h
UO-31 = system: UO-31
SR = system: SR
SN12C = system: SN12C
NCI-H226 = system: NCI-H226
HCC 2998 = system: HCC 2998
SNB-19 = system: SNB-19
K562 = system: K562
U-251 = system: U-251
NCI-H23 = system: NCI-H23
NCI-H522 = system: NCI-H522
HCT-116 = system: HCT-116
NCI-H460 = system: NCI-H460
IGROV-1 = system: IGROV-1
RXF 393 = system: RXF 393
SF-268 = system: SF-268
DLD-1 = system: DLD-1
HCT-15 = system: HCT-15

Row | Compound | GI50 (UO-31) | GI50 (SR) | GI50 (SN12C) | GI50 (NCI-H226) | GI50 (HCC 2998) | GI50 (SNB-19) | GI50 (K562) | GI50 (U-251) | GI50 (NCI-H23) | GI50 (NCI-H522) | GI50 (HCT-116) | GI50 (NCI-H460) | GI50 (IGROV-1) | GI50 (RXF 393) | GI50 (SF-268) | GI50 (DLD-1) | GI50 (HCT-15)
1 | C#CCNC(=O)NCCCC(NC(C)=O)C(=O)NCc1ccccc1 (configuration not stated) | > 100 µM (inactive) | > 100 µM (inactive) | > 100 µM (inactive) | > 100 µM (inactive) | > 100 µM (inactive) | > 100 µM (inactive) | > 100 µM (inactive) | > 100 µM (inactive) | > 100 µM (inactive) | > 100 µM (inactive) | > 100 µM (inactive) | > 100 µM (inactive) | > 100 µM (inactive) | > 100 µM (inactive) | > 100 µM (inactive) | > 100 µM (inactive) | > 100 µM
2 | O=C(CCC(=O)Nc1ccc(Cl)cc1)CC(=O)c1ccc2ccccc2c1 | > 100 µM (inactive) | > 100 µM (inactive) | > 100 µM (inactive) | > 100 µM (inactive) | > 100 µM (inactive) | > 100 µM (inactive) | > 100 µM (inactive) | > 100 µM (inactive) | > 100 µM (inactive) | > 100 µM (inactive) | > 100 µM (inactive) | > 100 µM (inactive) | > 100 µM (inactive) | > 100 µM (inactive) | > 100 µM (inactive) | > 100 µM (inactive) | > 100 µM
3 | C1OC1CN1CCN(CC2CO2)CC1 (configuration not stated) | 97.5 µM (inactive) | 2.42 µM (inactive) | 32.1 µM (inactive) | > 100 µM (inactive) | > 100 µM (inactive) | > 100 µM (inactive) | 52.5 µM (inactive) | 45.4 µM (inactive) | 22.1 µM (inactive) | > 100 µM (inactive) | 72.8 µM (inactive) | 6.53 µM (inactive) | > 100 µM (inactive) | > 100 µM (inactive) | 22.8 µM (inactive) | > 100 µM (inactive) | > 100 µM
4 | Cc1ccc(NC(=O)C(=O)C(C2C(C)CC(=O)C2CC(=O)O)[N+](=O)[O-])cc1 (configuration not stated) | > 100 µM (inactive) | > 100 µM (inactive) | > 100 µM (inactive) | > 100 µM (inactive) | > 100 µM (inactive) | > 100 µM (inactive) | > 100 µM (inactive) | > 100 µM (inactive) | > 100 µM (inactive) | – | > 100 µM (inactive) | > 100 µM (inactive) | > 100 µM (inactive) | > 100 µM (inactive) | > 100 µM (inactive) | > 100 µM (inactive) | > 100 µM
5 | O=C1C/C(Br)=C\c2ccccc2-c2ccccc21 | 2.4 µM (inactive) | 0.405 µM (active) | 2.04 µM (inactive) | 2.66 µM (inactive) | 7.14 µM (inactive) | 6.89 µM (inactive) | 1.06 µM (active) | 2.51 µM (inactive) | 3.16 µM (inactive) | 0.429 µM (active) | 1.8 µM (inactive) | 2.86 µM (inactive) | 3.1 µM (inactive) | 1.43 µM (inactive) | 2.85 µM (inactive) | 1.11 µM (active) | 1.56 µM
6 | O=C1NC2=C(CCCCC/C2=N\O)C12CCCCCC2 | > 100 µM (inactive) | > 100 µM (inactive) | > 100 µM (inactive) | – | – | > 100 µM (inactive) | > 100 µM (inactive) | > 100 µM (inactive) | > 100 µM (inactive) | > 100 µM (inactive) | > 100 µM (inactive) | > 100 µM (inactive) | > 100 µM (inactive) | > 100 µM (inactive) | > 100 µM (inactive) | > 100 µM (inactive) | > 100 µM
7 | Cc1nc2cc(N)c(F)cc2[nH]1 | > 100 µM (inactive) | > 100 µM (inactive) | > 100 µM (inactive) | > 100 µM (inactive) | – | > 100 µM (inactive) | > 100 µM (inactive) | > 100 µM (inactive) | > 100 µM (inactive) | > 100 µM (inactive) | – | > 100 µM (inactive) | > 100 µM (inactive) | > 100 µM (inactive) | > 100 µM (inactive) | > 100 µM (inactive) | –
8 | O=C1C=C(O)C(=Cc2c(O)cc(O)cc2O)C(O)=C1 | > 100 µM (inactive) | > 100 µM (inactive) | > 100 µM (inactive) | > 100 µM (inactive) | > 100 µM (inactive) | > 100 µM (inactive) | > 100 µM (inactive) | > 100 µM (inactive) | > 100 µM (inactive) | > 100 µM (inactive) | > 100 µM (inactive) | > 100 µM (inactive) | > 100 µM (inactive) | > 100 µM (inactive) | > 100 µM (inactive) | > 100 µM (inactive) | > 100 µM
9 | CCCC(=O)C(CC)/C(CCC(=O)N(Cc1ccccc1)Cc1ccccc1)=N/NC(=O)C[N+](C)(C)C (configuration not stated) | > 100 µM (inactive) | > 100 µM (inactive) | > 100 µM (inactive) | > 100 µM (inactive) | – | > 100 µM (inactive) | > 100 µM (inactive) | > 100 µM (inactive) | > 100 µM (inactive) | > 100 µM (inactive) | > 100 µM (inactive) | > 100 µM (inactive) | > 100 µM (inactive) | > 100 µM (inactive) | > 100 µM (inactive) | > 100 µM (inactive) | –
10 | O=C(Nc1nc2ncn(CCO)c2c(=S)[nH]1)c1ccccc1 | > 100 µM (inactive) | > 100 µM (inactive) | > 100 µM (inactive) | > 100 µM (inactive) | – | > 100 µM (inactive) | > 100 µM (inactive) | > 100 µM (inactive) | – | > 100 µM (inactive) | > 100 µM (inactive) | > 100 µM (inactive) | > 100 µM (inactive) | > 100 µM (inactive) | > 100 µM (inactive) | > 100 µM (inactive) | > 100 µM
11 | C/C(=C1/CCCC2(N=NCC2c2ccccc2)C1=O)c1ccccc1 (configuration not stated) | 20.9 µM (inactive) | 14 µM (inactive) | 40.5 µM (inactive) | 16 µM (inactive) | 38.2 µM (inactive) | 66.4 µM (inactive) | 12 µM (inactive) | 23.8 µM (inactive) | 16.6 µM (inactive) | 14.8 µM (inactive) | 18.7 µM (inactive) | 26.3 µM (inactive) | 42.4 µM (inactive) | 25.4 µM (inactive) | 65.3 µM (inactive) | 38.3 µM (inactive) | 35.1 µM
